System: DU-145 cells
Assay type: cell-based, human

SMILES: C=C1[C@@H](C)[C@H]2[C@H](Cc3ccccc3)NC(=O)[C@]23[C@H](OC(C)=O)/C=C/[C@@](C)(O)C(=O)[C@@H](C)C/C=C/[C@H]3[C@@H]1O [Cytochalasin-D]
- effect on cell migration: did not migrate

From patent US20120207742A1 (priority 2011, published 2012)
